What was measured:
bovine liver GlxII = target: T1, bovine liver GlxII (Bos taurus, UniProt Q3B7M2); settings: cited from earlier work
T1 construct: host or cells: bovine liver

[1] = tested on: Murine B16 melanotic melanoma; assay: In vitro cytotoxicity, growth inhibition of B16 melanotic melanoma; assay type: cell-based; settings: 72 hours
Protocol: Murine B16 melanotic melanoma was obtained from the DCT Tumor Repository (NCI-Cancer Research and Development Center, Frederick, Md.) and was maintained in RPMI 1640 medium containing L-glutamate (Gibco BRL, Gaithersburg, Md.), supplemented with 10% heat-inactivated fetal calf serum and gentamycin (10 μg/mL), under 37° C. humidified air containing 5% CO2. Under these conditions B16 cells have a doubling time of about 26 hours. For the toxicity studies, cells in logarithmic growth were introduced into 24 well plates at a density of 2×10^4 cells/ml in the absence and presence of drug spanning the IC50 values.
After 72 hours, the cells were washed with Hank's balanced salt solution without Ca^2+, treated with trypsin for 10 minutes at 37° C., concentrated by centrifugation and cell densities determined with a Coulter Counter. Cell viabilities were determined by the trypan blue exclusion method (Kaltenbach et al, Exp. Cell. Res. 15:112-117 (1958)).
Reported IC50 values (mean ±standard deviation of triplicate determinations carried out in three separate assays on different days) were calculated using the Hill equation and the program ADAPT (D'Argenio and Schumitzky, Comput. Methods Programs Biomed. 9:115-134 (1979)).

[2] = tested on: murine leukemia L1210 cells; settings: cited from earlier work; for IC50: diethyl ester prodrugs, after 72 hours of incubation, read-out: IC50, growth inhibition of L1210 cells in culture
PC3 prostate tumors = settings: intravenous administration, tumor-bearing mice; cited from earlier work
HT29 human colon tumors = settings: intravenous administration, tumor-bearing mice; cited from earlier work
[3] = intravenous administration, tumor-bearing mice; cited from earlier work
B16 melanotic melanoma = settings: intravenous administration, tumor-bearing mice; cited from earlier work
[4] = potassium phosphate buffer, 25° C., cited from earlier work
[5] = tested on: several different tumor cell lines; settings: in vitro; cited from earlier work

SMILES: N[C@@H](CCC(=O)N[C@@H](CSC(=O)N(O)c1ccc(Cl)cc1)C(=O)NCC(=O)O)C(=O)O [CHG, S—(N-p-chlorophenyl-N-hydroxycarbamoyl)glutathione]
- substrate for bovine liver GlxII (bovine liver GlxII): substrates for bovine liver GlxII

SMILES: CCCC[S+]([O-])C(=O)N(O)c1ccc(Cl)cc1 (centres unmarked) [Compound 2b, S—(N-4-Chlorophenyl-N-hydroxycarbamoyl)butyl sulfoxide]
- IC50 value relative to that of HPMA-8-sulfoxide (P1), fold lower [1]: five to ten-fold lower

SMILES: CCC[S+]([O-])C(=O)N(O)c1ccc(Cl)cc1 (centres unmarked) [Compound 2a, S—(N-4-Chlorophenyl-N-hydroxycarbamoyl)propyl sulfoxide]
- IC50 value relative to that of HPMA-8-sulfoxide (P1), fold lower [1]: five to ten-fold lower

SMILES: CCOC(=O)CNC(=O)C(CSC(=O)N(O)c1ccccc1)NC(=O)CCC(N)C(=O)OCC (centres unmarked) [PHG(Et)2]
- IC50 [2]: 63 µM

SMILES: CCOC(=O)CNC(=O)[C@H](CSC(=O)N(O)c1ccc(Cl)cc1)NC(=O)CC[C@H](N)C(=O)OCC [CHG(Et)2]
- inhibition of tumor growth, PC3 prostate tumors (PC3 prostate tumors): inhibits the growth
- IC50 [2]: 5 µM
- toxicity to L1210 cells versus normal splenic lymphocytes ([2]; in culture): significantly more toxic to murine leukemia L1210 cells than to normal splenic lymphocytes
- inhibition of tumor growth, HT29 human colon tumors (HT29 human colon tumors): inhibits the growth
- side effects in short term efficacy studies [3]: did not detect any significant side effects
- tissue distribution of the prodrug [3]: appearance of the prodrug in all major organs
- inhibition of tumor growth, B16 melanotic melanoma (B16 melanotic melanoma): inhibits the growth

SMILES: CN(O)C(=O)SC[C@H](NC(=O)CC[C@H](N)C(=O)O)C(=O)NCC(=O)O [S—(N-methyl-N-hydroxycarbamoyl)glutathione]
- substrate for bovine liver GlxII (bovine liver GlxII): substrates for bovine liver GlxII

SMILES: C/C=C/C(=O)OCC1=CCCCC1=O [Compound 3, 2-crotonyloxymethyl-2-cyclohexenone]
- IC50 value relative to that of HPMA-7 (P4), fold lower [1]: over 7000 fold
- rate constant k for reaction of GSH with the crotonate ester ([4]; 0.1 M (pH 6.5)): 1.13 ± 0.017 M⁻¹ s⁻¹

SMILES: CCOC(=O)CNC(=O)C(CSC(=O)N(O)c1ccc(Br)cc1)NC(=O)CCC(N)C(=O)OCC (centres unmarked) [BHG(Et)2]
- IC50 [2]: 16 µM

SMILES: N[C@@H](CCC(=O)N[C@@H](CSC(=O)N(O)c1ccc(Br)cc1)C(=O)NCC(=O)O)C(=O)O [BHG, S—(N-p-bromophenyl-N-hydroxycarbamoyl)glutathione]
- substrate for bovine liver GlxII (bovine liver GlxII): substrates for bovine liver GlxII

SMILES: CC[S+]([O-])C(=O)N(O)c1ccc(Cl)cc1 (centres unmarked) [Compound 2, S—(N-4-chlorophenyl-N-hydroxycarbamoyl)ethyl sulfoxide]
- cytostatic and cytotoxic activity on tumor cell lines [5]: cytostatic and cytotoxic
- IC50 value relative to that of HPMA-8-sulfoxide (P1), fold lower [1]: five to ten-fold lower
- rate constant k for reaction of GSH with the simple sulfoxide ([4]; 0.1 M (pH 7.5)): 30.7 ± 1.2 M⁻¹ s⁻¹

SMILES: N[C@@H](CCC(=O)N[C@@H](CSC(=O)N(O)c1ccccc1)C(=O)NCC(=O)O)C(=O)O [S—(N-phenyl-N-hydroxycarbamoyl)glutathione]
- substrate for bovine liver GlxII (bovine liver GlxII): substrates for bovine liver GlxII

— patent US20070287672A1, “Macromolecular Gsh-Activiated Glyoxylase I Inhibitors” (priority 2004, published 2007)
